Laboratory results published in patent US12661355B2, “Compounds and methods for inducing UCP1 expression” (The Regents of the University of California, priority 2020, dated 2026).
“Also recorded” adds a separate entry of the source.

Experiments:
AKAP13 = molecular target: T1, AKAP13 (Rattus norvegicus, UniProt F1M3G7); test: DARTS in H9c2 cell extracts, AKAP13; assay type: binding; conditions: 20 μM, 1 h
T1 construct: DARTS assay in H9c2 cell extracts treated with vehicle or 20 μM Z160 for 1 h; endogenous in cells; host or cells: rat H9c2 cells
T1 sequence (F1M3G7 whole entry): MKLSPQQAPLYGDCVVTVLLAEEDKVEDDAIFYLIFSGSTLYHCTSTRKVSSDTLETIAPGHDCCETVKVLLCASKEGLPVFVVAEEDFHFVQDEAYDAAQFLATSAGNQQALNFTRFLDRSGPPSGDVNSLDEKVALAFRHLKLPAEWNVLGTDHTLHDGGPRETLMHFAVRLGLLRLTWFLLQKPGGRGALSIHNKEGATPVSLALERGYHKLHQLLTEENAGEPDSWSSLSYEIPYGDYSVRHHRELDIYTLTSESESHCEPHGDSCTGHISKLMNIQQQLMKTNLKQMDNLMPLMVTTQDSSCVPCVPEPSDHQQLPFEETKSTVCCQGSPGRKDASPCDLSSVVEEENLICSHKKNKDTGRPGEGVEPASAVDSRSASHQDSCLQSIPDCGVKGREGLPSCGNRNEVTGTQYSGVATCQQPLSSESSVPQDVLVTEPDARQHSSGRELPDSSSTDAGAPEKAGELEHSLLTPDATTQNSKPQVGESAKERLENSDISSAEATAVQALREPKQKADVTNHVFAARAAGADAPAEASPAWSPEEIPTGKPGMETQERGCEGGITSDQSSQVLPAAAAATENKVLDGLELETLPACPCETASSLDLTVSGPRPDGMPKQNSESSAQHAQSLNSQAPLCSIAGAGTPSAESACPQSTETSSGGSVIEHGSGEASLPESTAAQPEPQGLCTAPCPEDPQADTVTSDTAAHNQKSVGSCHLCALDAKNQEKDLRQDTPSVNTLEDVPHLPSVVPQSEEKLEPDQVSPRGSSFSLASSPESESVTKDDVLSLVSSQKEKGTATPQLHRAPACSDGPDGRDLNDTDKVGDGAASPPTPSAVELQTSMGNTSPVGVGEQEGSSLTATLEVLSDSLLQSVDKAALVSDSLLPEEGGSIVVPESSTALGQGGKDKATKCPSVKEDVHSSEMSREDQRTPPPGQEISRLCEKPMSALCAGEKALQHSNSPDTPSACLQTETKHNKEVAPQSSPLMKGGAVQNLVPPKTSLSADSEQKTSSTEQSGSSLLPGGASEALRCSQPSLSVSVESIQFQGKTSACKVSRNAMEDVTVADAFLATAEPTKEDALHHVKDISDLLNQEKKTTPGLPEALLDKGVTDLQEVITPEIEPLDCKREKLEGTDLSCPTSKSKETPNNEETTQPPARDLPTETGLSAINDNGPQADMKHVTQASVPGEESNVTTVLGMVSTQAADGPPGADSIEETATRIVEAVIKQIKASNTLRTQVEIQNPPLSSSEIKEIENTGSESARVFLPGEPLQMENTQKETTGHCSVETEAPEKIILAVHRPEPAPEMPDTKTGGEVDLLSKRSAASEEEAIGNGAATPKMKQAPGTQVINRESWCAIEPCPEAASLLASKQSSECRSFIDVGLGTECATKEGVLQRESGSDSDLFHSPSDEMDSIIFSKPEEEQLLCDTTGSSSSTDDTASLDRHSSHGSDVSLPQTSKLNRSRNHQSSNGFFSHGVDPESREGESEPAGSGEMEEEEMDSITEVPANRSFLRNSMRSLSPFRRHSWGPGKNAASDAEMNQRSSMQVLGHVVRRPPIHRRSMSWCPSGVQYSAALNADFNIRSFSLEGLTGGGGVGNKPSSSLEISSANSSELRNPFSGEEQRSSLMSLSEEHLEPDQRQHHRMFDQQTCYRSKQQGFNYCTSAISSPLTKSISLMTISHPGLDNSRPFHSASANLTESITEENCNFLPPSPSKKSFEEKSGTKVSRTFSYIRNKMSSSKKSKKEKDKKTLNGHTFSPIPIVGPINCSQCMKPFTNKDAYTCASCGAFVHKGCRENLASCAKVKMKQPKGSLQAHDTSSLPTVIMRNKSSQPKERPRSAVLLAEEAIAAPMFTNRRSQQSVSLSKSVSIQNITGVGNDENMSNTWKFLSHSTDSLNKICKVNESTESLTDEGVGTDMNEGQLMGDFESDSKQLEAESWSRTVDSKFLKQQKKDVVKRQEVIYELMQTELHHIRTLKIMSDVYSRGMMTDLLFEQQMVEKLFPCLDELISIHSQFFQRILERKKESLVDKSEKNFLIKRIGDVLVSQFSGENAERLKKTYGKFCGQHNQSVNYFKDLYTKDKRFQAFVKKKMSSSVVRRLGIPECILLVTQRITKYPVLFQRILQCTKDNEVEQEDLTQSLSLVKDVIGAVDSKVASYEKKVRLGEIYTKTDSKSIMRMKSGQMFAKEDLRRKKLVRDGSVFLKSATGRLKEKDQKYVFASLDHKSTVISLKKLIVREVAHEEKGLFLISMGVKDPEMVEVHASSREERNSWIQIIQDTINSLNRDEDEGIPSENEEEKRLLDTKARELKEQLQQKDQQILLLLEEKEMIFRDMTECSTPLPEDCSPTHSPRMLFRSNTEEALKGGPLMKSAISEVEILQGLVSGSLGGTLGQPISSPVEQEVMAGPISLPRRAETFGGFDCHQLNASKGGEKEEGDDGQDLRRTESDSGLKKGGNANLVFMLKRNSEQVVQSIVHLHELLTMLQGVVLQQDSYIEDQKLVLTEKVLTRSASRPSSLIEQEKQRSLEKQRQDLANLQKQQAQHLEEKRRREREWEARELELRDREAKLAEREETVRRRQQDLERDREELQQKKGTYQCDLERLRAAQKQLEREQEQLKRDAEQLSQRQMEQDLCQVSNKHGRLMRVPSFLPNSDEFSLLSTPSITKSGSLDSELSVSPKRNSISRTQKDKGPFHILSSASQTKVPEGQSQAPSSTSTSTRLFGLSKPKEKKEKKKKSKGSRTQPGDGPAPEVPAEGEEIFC
Description: (§1) Rat H9c2 cells were grown in DMEM supplemented with 10% FBS, 25 mM glucose, 1 mM pyruvate, and 2 mM glutamine Neonatal rat ventricular myocytes (NRVM) were isolated and cultured as previously described. Briefly, 2-4 day old rats were sacrificed and myocytes and fibroblasts were isolated and separated using a Percoll density gradient. Following isolation, NRVMs were plated on gelatin-coated plates in DMEM containing 10% FBS, 25 mM glucose, 1 mM pyruvate, and 2 mM glutamine The next day, FBS was replaced by 1× insulin-transferrin-selenium supplement and the cells were treated with vehicle or 10 μM Z160 for 2 days, with or without 60 μM isoproterenol or 50 μM phenylephrine.
[…] assays were performed according to known methods. Briefly, BAT or cells within a 10 cm dish were lysed with 600 μl M-PER buffer containing protease and phosphatase inhibitors. Debris was pelleted by centrifugation at 18,000 g for 10 min at 4° C., and the lysates were harvested and supplemented with TNC buffer (50 mM Tris-HCl, 50 mM NaCl, 10 mM CaCl2). The lysates were split into two tubes and treated with either vehicle or 20 μM Z160 for 1 h at room temperature. For experiment with BAT, 100 μg of lysate was incubated with different Z160 concentrations. […]

NRVM = test: Hypertrophic gene expression in neonatal rat ventricular myocytes; assay type: cell-based; conditions: 10 μM Z160 concomitantly with 60 μM isoproterenol or 50 μM phenylephrine, 2 days
Description: as §1
RNA levels were measured by qPCR according to known methods. Briefly, RNA was extracted with TRIzol (Invitrogen) and reverse transcribed with iScript (Bio-Rad). Real-time PCR analysis was performed with a CFX Connect (Bio-Rad).

PKA subunits = test: Western blot of mitochondria-associated proteins, PKA subunits; assay type: cell-based, mouse; conditions: brown adipocytes, 10 μM, after 6-8 h
Description: Cells and tissues were lysed in 10 mM Tris pH 7.5, 10 mM NaCl, 1 mM EDTA and 0.5% Triton X-100, supplemented with complete mini EDTA-free protease (Roche Diagnostics) and phosphatase (Cocktail 2 and 3, Sigma) inhibitors, followed by 10 second sonication. For analysis of mitochondrial proteins, mitochondria were isolated from cells by dual centrifugation, as described. Protein lysates were separated by SDS-PAGE and transferred to a nitrocellulose membrane. Transfer was confirmed by Ponceau staining (P7170, Sigma). After blocking in 5% milk, 0.1% Tween-20 in Tris-buffered saline (TBS), primary antibody was incubated overnight at 4° C. in 5% bovine serum albumin and 0.1% Tween-20 in TBS. Primary antibodies against ACTB (GTX109639, GeneTex), AKAP1 (5203, Cell Signaling), AKAP6 (07-087, Millipore), Cytochrome c (136F3, Cell Signaling), electron transport chain protein complexes (Total OXPHOS rodent WB antibody cocktail ab110413, Abcam), GAPDH (GTX100118, Genetex), active p38 MAPK (V1211, Promega), total p38 MAPK (8690, Cell Signaling), PGC1α (AB3242, Millipore), phospho-(Ser/Thr) PKA substrate (9621, Cell Signaling), PKA C-α (4782, Cell Signaling), PKA RII-β (ab75993, Abcam), and UCP1 (662045, Calbiochem) were used at 1:2000. […] Quantification using representative bands from the Ponceau staining was performed with ImageJ. […]

p38 MAPK = test: CETSA in brown adipocytes, p38 MAPK; assay type: binding, mouse; conditions: 10 μM for 8 h
Description: CETSA assays were performed according to known methods. Briefly, differentiated brown adipocytes (one 10 cm dish per treatment) were treated with vehicle or compounds, trypsinized, counted, and re-suspended in approximately 450 μl PBS containing protease inhibitors (volumes were adjusted to have the same number of cells in each treatment). For each sample, 18 μl was distributed into each of 7 PCR tubes. Samples were heated using a thermocycler with a temperature gradient (iCycler, Biorad) for 3 min, followed by 3 min at room temperature, and then snap-frozen in liquid N2. After two freeze-thaw cycles, samples were centrifuged at 20,000 g for 15 min at 4° C., and the supernatants were transferred to another set of tubes. Proteins were analyzed by immunoblotting.
The potential interaction of Z160 with PKA subunits and AKAPs was assessed first by identifying which PKA subunits and AKAP isoforms are normally present in BAT. […] To perform the CETSA assays, cultured brown adipocytes were incubated with 10 μM Z160 for 8 h, after which the thermal shift was analyzed by Western blot.

## COc1ccc(NC(=O)CSc2nc3ccccc3c(=O)[nH]2)c(OC)c1 [Z160]
AKAP13
  pronase susceptibility of AKAP13: altered pronase susceptibility; also recorded: change of AKAP13 conformation
NRVM
  effect on hypertrophic gene expression profile (Nppa, Nppb, Pln) induced by isoproterenol or phenylephrine: prevented the induction of a hypertrophic gene expression profile; also recorded: reverses the effect of ISO and PE
PKA subunits
  mitochondrial association of PKA subunits: increased mitochondrial association
p38 MAPK
  heat stability of p38 MAPK: did not influence the heat stability
